Measured values published in article PMC4971072, “Chemically Homogenous Compounds with Antagonistic Properties at All α1-Adrenoceptor Subtypes but not β1-Adrenoceptor Attenuate Adrenaline-Induced Arrhythmia in Rats” (Frontiers in Pharmacology, 2016).
Where a name gives a salt, the structure may show the parent alone. Marks after values point to notes of the source that are not given here.

Assays:
[1] = biological target: T1, α1A-adrenoceptors (Rattus norvegicus, UniProt P43140); test: Functional bioassay, isolated rat tail artery, noradrenaline contraction; format: biochemical; details: noradrenaline as agonist
T1 construct: the middle part of the ventral caudal artery was removed; from tissue; host or cells: isolated rat tail (ventral caudal) artery rings
T1 sequence (P43140 1-466): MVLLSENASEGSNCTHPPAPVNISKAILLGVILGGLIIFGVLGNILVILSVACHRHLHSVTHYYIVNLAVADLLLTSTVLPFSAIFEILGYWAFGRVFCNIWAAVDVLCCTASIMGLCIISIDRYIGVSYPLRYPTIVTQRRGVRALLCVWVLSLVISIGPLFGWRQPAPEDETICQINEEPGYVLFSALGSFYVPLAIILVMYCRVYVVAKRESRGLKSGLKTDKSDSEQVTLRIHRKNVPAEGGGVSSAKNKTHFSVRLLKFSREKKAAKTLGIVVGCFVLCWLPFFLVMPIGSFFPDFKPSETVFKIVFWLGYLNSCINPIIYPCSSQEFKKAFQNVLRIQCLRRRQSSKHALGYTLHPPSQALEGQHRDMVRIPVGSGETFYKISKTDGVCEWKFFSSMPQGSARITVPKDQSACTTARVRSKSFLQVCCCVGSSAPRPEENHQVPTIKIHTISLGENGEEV
Procedure: The isolated artery, cut into ~4 mm long rings, was then horizontally put up between two stainless steel hooks (diameter 0.15 mm). One hook was fastened to the bottom of the chamber and the other to an isometric FDT10-A force displacement transducer (DMT Model 750TOBS, Denmark), linked with Powerlab 4/26 analyzer (ADInstruments), and processed by LabChart 7 software. […] The initial optimal tissues tension was set at 0.75 g. Chloroethylclonidine (3 μM) as the preferential α1B-adrenoreceptor alkylating agent was used during incubation and after 30 min it was completely washed off. Through 100 min of equilibration tissues were stimulated with noradrenaline (1 μM) four times with washing out until the contractile response become constant. Two cumulative concentration-response curves to noradrenaline, at an interval of 60 min, were established on each arterial ring both in the presence and absence of antagonist. The incubation with antagonists went on for 30 min. The experiments were carried out in the constant presence of yohimbine (0.1 μM) and propranolol (1 μM) to block α2- and β-adrenoceptors, respectively in order to minimize the involvement of these adrenoceptors in the response to noradrenaline.
Data are means ± S.E.M. of at least 4 separate experiments. To establish Hill slopes for the agonist concentration–response curves and calculate EC50 values, curves were fitted to all the data by non-linear regression. The EC50 value in the presence and absence of antagonists was used to ascertain the concentration ratio (CR). Schild analysis was performed.

[2] = system: normal ECG in rats; test: The effect on normal electrocardiogram in rats; format: in vivo, rat; details: anesthetized rats
Procedure: The experiment was carried out to exclude the influence of tested compounds on normal ECG. […] The influence on QRS complex, PQ interval, heart rate (RR), and QTc interval was determined.

[3] = system: adrenaline-induced arrhythmia in rats; test: Prophylactic antiarrhythmic activity in adrenaline-induced arrhythmia; format: in vivo, rat
Procedure: The studied compounds were administered i.p. 45 min before the injection of adrenaline, calcium chloride, or barium chloride. The electrocardiogram (ECG) was recorded during the first 2 min as well as in the 5th, 10th, and 15th min after the arrhythmogen injection. […]

[4] = system: adrenaline-induced arrhythmia in rats; test: Therapeutic antiarrhythmic activity in adrenaline-induced arrhythmia; format: in vivo, rat; details: i.v. at ED84 at the peak of adrenaline-induced arrhythmia (20 μg/kg)
Procedure: The ECG was recorded constantly for 5 min as well as in the 10th and 15th min of the experiment.

[5] = system: lipid peroxidation in rat brain homogenate; test: Lipid peroxidation in rat brain homogenate (TBARS), antioxidant effect; format: biochemical; details: 10^−3 M
Procedure: The rat brain homogenate containing 10 mg tissue/ml was prepared in 0.9% saline. The rates of membrane lipid peroxidation were measured by the formation of thiobarbituric acid reactive substances (TBARS). Rat brain homogenates (1 ml) were incubated at 37°C for 5 min with 10 μl of a tested compound or vehicle. Lipid peroxidation was initiated by the addition of 50 μl of 0.5 mM FeCl2 and 50 μl of 2.0 mM ascorbic acid. After 30 min of incubation, the reaction was stopped by adding 0.1 ml of 0.2% butylated hydroxytoluene (BHT). Thiobarbituric acid reagent was then added and the mixture was heated for 15 min in a boiling water bath.

[6] = i.p. at ED84, 0 min (initial values)
[7] = dose 0.1 mg/kg i.p. 45 min before adrenaline 20 μg/kg i.v.
[8] = dose 0.2 mg/kg i.p. 45 min before adrenaline 20 μg/kg i.v.
[9] = dose 0.3 mg/kg i.p. 45 min before adrenaline 20 μg/kg i.v.

Schild slope ± S.E.M., α1A [1]: 0.96 ± 0.05
Kb ([1]; read-out: pA2 ± S.E.M., α1A (converted)): 1.23 nM
SMILES: COc1ccccc1N1CCN(CCCOc2cc(C)cc(C)c2C)CC1 [HBK-19, 1N-[3-(2,3,5-trimethylphenoxy)propyl]-4N-(2-methoxyphenyl)piperazine hydrochloride]
influence on ECG parameters (PQ interval, QRS complex, QTc interval) ([2]; i.p. at ED84): without the influence on PQ interval, QRS complex, or QTc interval
reduction of heart rate ([2]; i.p. at ED84, over the period of significant effect vs. initial values): 21−22%
Beats/min (ECG) [2, 6]: 355.3 ± 19.7 Beats/min
PQ (ECG) [2, 6]: 56.7 ± 0.7 ms
QRS (ECG) [2, 6]: 35.7 ± 1.0 ms
QT (ECG) [2, 6]: 76.4 ± 8.2 ms
QTc (ECG, Bazett) [2, 6]: 186.9 ± 24.6 ms
Beats/min (ECG) ([2]; i.p. at ED84, 5 min): 349.7 ± 25.3 Beats/min
PQ (ECG) ([2]; i.p. at ED84, 5 min): 56.6 ± 0.0 ms
QRS (ECG) ([2]; i.p. at ED84, 5 min): 34.7 ± 1.6 ms
QT (ECG) ([2]; i.p. at ED84, 5 min): 76.9 ± 1.1 ms
QTc (ECG, Bazett) ([2]; i.p. at ED84, 5 min): 185.5 ± 9.5 ms
Beats/min (ECG) ([2]; i.p. at ED84, 10 min): 339.1 ± 21.0 Beats/min
PQ (ECG) ([2]; i.p. at ED84, 10 min): 56.0 ± 0.0 ms
QRS (ECG) ([2]; i.p. at ED84, 10 min): 34.0 ± 0.3 ms
QT (ECG) ([2]; i.p. at ED84, 10 min): 77.5 ± 0.5 ms
QTc (ECG, Bazett) ([2]; i.p. at ED84, 10 min): 184.2 ± 6.9 ms
Beats/min (ECG) ([2]; i.p. at ED84, 15 min): 280.1 ± 1.1^c Beats/min
PQ (ECG) ([2]; i.p. at ED84, 15 min): 58.2 ± 1.8 ms
QRS (ECG) ([2]; i.p. at ED84, 15 min): 32.0 ± 1.2 ms
QT (ECG) ([2]; i.p. at ED84, 15 min): 82.2 ± 2.2 ms
QTc (ECG, Bazett) ([2]; i.p. at ED84, 15 min): 177.6 ± 4.4 ms
Beats/min (ECG) ([2]; i.p. at ED84, 20 min): 277.2 ± 5.0^c Beats/min
PQ (ECG) ([2]; i.p. at ED84, 20 min): 60.1 ± 1.3 ms
QRS (ECG) ([2]; i.p. at ED84, 20 min): 32.7 ± 0.4 ms
QT (ECG) ([2]; i.p. at ED84, 20 min): 84.3 ± 1.1 ms
QTc (ECG, Bazett) ([2]; i.p. at ED84, 20 min): 181.1 ± 4.1 ms
Beats/min (ECG) ([2]; i.p. at ED84, 30 min): 278.2 ± 6.7^c Beats/min
PQ (ECG) ([2]; i.p. at ED84, 30 min): 60.1 ± 1.7 ms
QRS (ECG) ([2]; i.p. at ED84, 30 min): 34.3 ± 0.2 ms
QT (ECG) ([2]; i.p. at ED84, 30 min): 82.2 ± 0.4 ms
QTc (ECG, Bazett) ([2]; i.p. at ED84, 30 min): 177.0 ± 3.0 ms
Beats/min (ECG) ([2]; i.p. at ED84, 40 min): 332.8 ± 18.9 Beats/min
PQ (ECG) ([2]; i.p. at ED84, 40 min): 59.3 ± 0.7 ms
QRS (ECG) ([2]; i.p. at ED84, 40 min): 32.0 ± 3.1 ms
QT (ECG) ([2]; i.p. at ED84, 40 min): 81.5 ± 2.5 ms
QTc (ECG, Bazett) ([2]; i.p. at ED84, 40 min): 192.2 ± 11.2 ms
Beats/min (ECG) ([2]; i.p. at ED84, 50 min): 396.8 ± 31.8 Beats/min
PQ (ECG) ([2]; i.p. at ED84, 50 min): 55.1 ± 0.3 ms
QRS (ECG) ([2]; i.p. at ED84, 50 min): 36.0 ± 1.5 ms
QT (ECG) ([2]; i.p. at ED84, 50 min): 76.5 ± 0.5 ms
QTc (ECG, Bazett) ([2]; i.p. at ED84, 50 min): 196.2 ± 6.9 ms
Beats/min (ECG) ([2]; i.p. at ED84, 60 min): 398.0 ± 32.4 Beats/min
PQ (ECG) ([2]; i.p. at ED84, 60 min): 56.3 ± 1.1 ms
QRS (ECG) ([2]; i.p. at ED84, 60 min): 30.3 ± 1.1 ms
QT (ECG) ([2]; i.p. at ED84, 60 min): 80.2 ± 0.4 ms
QTc (ECG, Bazett) ([2]; i.p. at ED84, 60 min): 206.3 ± 9.6 ms
ED50 ([3]; Rattus norvegicus, read-out: ED50 (confidence limits)): 0.21 mg/kg
Bigeminy (%) [3, 7]: 33.3%
Blocks (%) [3, 7]: 50.0%
Bradycardia (%) [3, 7]: 66.7%
Extrasystoles (%) [3, 7]: 66.7%
Bigeminy (%) [3, 8]: 16.7%
Blocks (%) [3, 8]: 33.3%
Bradycardia (%) [3, 8]: 33.3%
Extrasystoles (%) [3, 8]: 50.0%
Blocks (%) [3, 9]: 16.7%
Bradycardia (%) [3, 9]: 16.7%
Extrasystoles (%) [3, 9]: 16.7%
therapeutic antiarrhythmic activity (premature ventricular contractions) [4]: restored normal heart rhythm
inhibition of lipid peroxidation (in words) [5]: inhibited lipid peroxidation
% reduction of absorbance (% antioxidant activity) ([5]; TBARs at 532 nm): 22.62%
Absorbance ([5]; TBARs at 532 nm): 0.698 ± 0.007
